Test results: PubChem BioAssay AID328 (DTP/NCI, 2004)
Values joined by “and” are separate entries in the source; they are usually repeats but may differ in a detail not shown here. Identical values can stand only once. Inconclusive results and toxic doses are left out. How the source made its calls: active means survival T/C of 150% or more; inactive means T/C below 125% in these data.

Tested on: BDF1 mice, P388 leukemia ip, median survival T/C
Assay: NCI In Vivo Anticancer Drug Screen. Data for tumor model P388 Leukemia (intraperitoneal) in B6D2F1 (BDF1) mice
Details: endpoint: median survival time, higher = longer survival
In short: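 Mice carrying the transplantable tumour receive compound or vehicle. Survival is followed in each arm, and the treated measure is divided by the vehicle measure.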

[1] = dose: 25.0 mg/kg/injection, schedule: Q01DX009 (ip), vehicle: saline with Tween-80
[2] = dose: 50.0 mg/kg/injection, schedule: Q01DX009 (ip), vehicle: saline with Tween-80
[3] = dose: 100.0 mg/kg/injection, schedule: Q01DX009 (ip), vehicle: saline with Tween-80
[4] = dose: 200.0 mg/kg/injection, schedule: Q01DX009 (ip), vehicle: saline with Tween-80
[5] = dose: 12.5 mg/kg/injection, schedule: Q01DX009 (ip), vehicle: saline
[6] = dose: 100.0 mg/kg/injection, schedule: Q04DX003 (ip), vehicle: Klucel (hydroxypropylcellulose) (HPC)
[7] = dose: 400.0 mg/kg/injection, schedule: Q04DX003 (ip), vehicle: Klucel (hydroxypropylcellulose) (HPC)
[8] = dose: 100.0 mg/kg/injection, schedule: Q01DX009 (ip), vehicle: Klucel (hydroxypropylcellulose) (HPC)
[9] = dose: 200.0 mg/kg/injection, schedule: Q01DX009 (ip), vehicle: Klucel (hydroxypropylcellulose) (HPC)
[10] = dose: 100.0 mg/kg/injection, schedule: Q04DX003 (ip), vehicle: saline with Tween-80
[11] = dose: 200.0 mg/kg/injection, schedule: Q04DX003 (ip), vehicle: saline with Tween-80
[12] = dose: 400.0 mg/kg/injection, schedule: Q01DX009 (ip), vehicle: saline with Tween-80
[13] = dose: 400.0 mg/kg/injection, schedule: Q04DX003 (ip), vehicle: saline with Tween-80
[14] = dose: 50.0 mg/kg/injection, schedule: Q01DX005 (ip), vehicle: saline with Tween-80
[15] = dose: 100.0 mg/kg/injection, schedule: Q04DX003 (ip), vehicle: saline
[16] = dose: 400.0 mg/kg/injection, schedule: Q04DX003 (ip), vehicle: saline

Measured: T/C

O=C1CC(c2ccccc2)=NO1
inactive: [1] 96 % of control | [2] 91 % of control | [3] 101 % of control | [4] 107 % of control

C[C@]12CC[C@H](O)C=C1CC[C@@H]1[C@@H]2CC[C@]2(C)C(c3ccc(=O)oc3)CC[C@]12O (some centres not stated)
inactive: dose: 6.25 mg/kg/injection, schedule: Q01DX009 (ip), vehicle: Klucel (hydroxypropylcellulose) (HPC) 96 % of control | dose: 12.5 mg/kg/injection, schedule: Q01DX009 (ip), vehicle: Klucel (hydroxypropylcellulose) (HPC) 86 % of control

CCCCCC[P+](c1ccccc1)(c1ccccc1)c1ccccc1
inactive: dose: 6.25 mg/kg/injection, schedule: Q01DX009 (ip), vehicle: saline 114 % of control | dose: 6.25 mg/kg/injection, schedule: Q04DX003 (ip), vehicle: saline 109 % of control | [5] 92 % of control | dose: 12.5 mg/kg/injection, schedule: Q04DX003 (ip), vehicle: saline 104 % of control

C/C=C(/Cl)c1c(C)cc(C)c(CC(=O)O)c1C
inactive: [6] 87 % of control | dose: 200.0 mg/kg/injection, schedule: Q04DX003 (ip), vehicle: Klucel (hydroxypropylcellulose) (HPC) 95 % of control | [7] 95 % of control

CCCCCCc1c(C(OC)OC)[nH]c(=S)[nH]c1=O
inactive: [8] 96 % of control | [9] 89 % of control

CCOC(=O)C1C2OC(=O)C(C(=O)C2N=Nc2ccc(-c3ccc(N=NC4C(=O)C5C(=O)OC4C(C(=O)OCC)C5C4CC=CCC4)cc3)cc2)C1C1CC=CCC1 (configuration not stated)
inactive: [3] 109 % of control | [10] 110 % of control | [4] 100 % of control | [11] 105 % of control | [12] 109 % of control | [13] 115 % of control

O=C(Cn1ccc(=O)[nH]c1=O)c1ccc([N+](=O)[O-])o1
inactive: dose: 25.0 mg/kg/injection, schedule: Q04DX003 (ip), vehicle: saline 109 % of control | dose: 50.0 mg/kg/injection, schedule: Q04DX003 (ip), vehicle: saline 100 % of control

CN(C)c1ccc(/C=C/c2ccnc3cc(Cl)ccc23)cc1
inactive: [2] 118 % of control | [3] 100 % of control | [4] 93 % of control

CC(C)(C)Cc1cc(O)c2c(c1O)C(=O)c1ccccc1C2=O
inactive: dose: 25.0 mg/kg/injection, schedule: Q04DX003 (ip), vehicle: saline with Tween-80 100 % of control | dose: 50.0 mg/kg/injection, schedule: Q04DX003 (ip), vehicle: saline with Tween-80 102 % of control | [10] 95 % of control

CC=C=CCN(C)Cc1ccccc1
inactive: [5] 120 % of control | dose: 25.0 mg/kg/injection, schedule: Q01DX009 (ip), vehicle: saline 100 % of control | dose: 50.0 mg/kg/injection, schedule: Q01DX009 (ip), vehicle: saline 105 % of control and 109 % of control

N#CCCC(C#N)(CCC#N)c1ccc([N+](=O)[O-])cc1
inactive: [3] 92 % of control | [10] 101 % of control | [4] 92 % of control | [11] 100 % of control | [12] 92 % of control | [13] 102 % of control

[CH3][Hg][Cl]
inactive: dose: 0.25 mg/kg/injection, schedule: Q01DX009 (ip), vehicle: saline 109 % of control | dose: 0.5 mg/kg/injection, schedule: Q01DX009 (ip), vehicle: saline 100 % of control | dose: 1.0 mg/kg/injection, schedule: Q01DX009 (ip), vehicle: saline 100 % of control

C1=C(c2ccccc2)OC(c2ccccc2)C1c1ccccc1 (configuration not stated)
inactive: dose: 25.0 mg/kg/injection, schedule: Q01DX005 (ip), vehicle: saline with Tween-80 94 % of control | [14] 94 % of control

Cc1nnc2c(Cl)nccn12
inactive: dose: 100.0 mg/kg/injection, schedule: Q01DX001 (ip), vehicle: saline with Tween-80 106 % of control | dose: 200.0 mg/kg/injection, schedule: Q01DX001 (ip), vehicle: saline with Tween-80 106 % of control

CC1COCC(C)N1 (configuration not stated)
inactive: [15] 106 % of control | dose: 200.0 mg/kg/injection, schedule: Q04DX003 (ip), vehicle: saline 111 % of control | [16] 106 % of control

CC(C)CCCC(C)C1CCC2C3CC=C4CC(OP(=O)(N5CC5)N5CC5)CCC4(C)C3CCC12C (configuration not stated)
inactive: [1] 98 % of control | [2] 100 % of control | [3] 117 % of control | [4] 110 % of control

COC(=O)C(C)C(C)=O (configuration not stated)
inactive: dose: 100.0 mg/kg/injection, schedule: Q04DX003 (sc), vehicle: olive oil, sesame oil, peanut oil 100 % of control | dose: 200.0 mg/kg/injection, schedule: Q04DX003 (sc), vehicle: olive oil, sesame oil, peanut oil 104 % of control | dose: 400.0 mg/kg/injection, schedule: Q04DX003 (sc), vehicle: olive oil, sesame oil, peanut oil 100 % of control

Cc1ccc2n[nH]nc2c1
inactive: dose: 25.0 mg/kg/injection, schedule: Q01DX009 (ip), vehicle: Klucel (hydroxypropylcellulose) (HPC) 99 % of control | dose: 50.0 mg/kg/injection, schedule: Q01DX009 (ip), vehicle: Klucel (hydroxypropylcellulose) (HPC) 111 % of control | [8] 107 % of control | [9] 102 % of control

CCOC(=O)COc1ccc(C=O)cc1
inactive: [6] 103 % of control | [7] 92 % of control

COc1ccc(/C(=N/N)C(C)(C)C)cc1
inactive: [2] 88 % of control

ClC(Cl)(Cl)C(Cl)(Cl)c1ccc(C(Cl)(Cl)C(Cl)(Cl)Cl)cc1
inactive: dose: 18.75 mg/kg/injection, schedule: Q01DX009 (ip), vehicle: saline with Tween-80 100 % of control | dose: 37.5 mg/kg/injection, schedule: Q01DX009 (ip), vehicle: saline with Tween-80 100 % of control | dose: 75.0 mg/kg/injection, schedule: Q01DX009 (ip), vehicle: saline with Tween-80 100 % of control | dose: 100.0 mg/kg/injection, schedule: Q04DX003 (ip), vehicle: saline sonified 100 % of control | [4] 92 % of control | dose: 400.0 mg/kg/injection, schedule: Q04DX003 (ip), vehicle: saline sonified 95 % of control

O=S(=O)(Cc1ccc(Cl)cc1)c1nc2ccccc2s1
inactive: [14] 107 % of control | dose: 100.0 mg/kg/injection, schedule: Q01DX005 (ip), vehicle: saline with Tween-80 105 % of control

CCN(CC)CCOCCO
inactive: [15] 110 % of control | [16] 100 % of control

CN1CCCC(C(=O)c2ccccc2)S1(=O)=O (configuration not stated)
inactive: dose: 100.0 mg/kg/injection, schedule: Q04DX002 (ip), vehicle: saline with Tween-80 104 % of control | dose: 200.0 mg/kg/injection, schedule: Q04DX002 (ip), vehicle: saline with Tween-80 114 % of control | dose: 400.0 mg/kg/injection, schedule: Q04DX002 (ip), vehicle: saline with Tween-80 107 % of control

O=S(=O)(Nc1ccccc1)c1ccc(C2CC3(Cl)C(Cl)=C(Cl)C2(Cl)C3(Cl)Cl)cc1 (configuration not stated)
inactive: [10] 91 % of control | [11] 91 % of control | [13] 91 % of control

Cc1ccc2nc3c4ccccc4c4ccccc4c3nc2c1
inactive: [8] 109 % of control | [9] 90 % of control | dose: 400.0 mg/kg/injection, schedule: Q01DX009 (ip), vehicle: Klucel (hydroxypropylcellulose) (HPC) 100 % of control

NC(=S)n1cccn1
inactive: dose: 50.0 mg/kg/injection, schedule: Q01DX010 (ip), vehicle: water 118 % of control
